# Source: patent publication US8926603B2, “System and method for denaturing and fixing collagenous tissue” (Hansen Medical, Inc., priority 2004, dated 2015)
# Assay: denaturation accompanied by genepin treatment, study at the University of Pennsylvania (FIG. 6)
# Conditions: versus denatured collagenous tissue without genepin treatment
# Text: Referring to FIGS. 5A-C, a denatured collagenous tissue mass exposed to genepin (371) is depicted. […] The result is a partial recovery or recreation of the mechanical properties of collagenous tissue to the state that they were prior to denaturation. […] Referring to FIG. 6, this has been experimentally confirmed in a study at the University of Pennsylvania, as directed by the inventors of the subject invention.
structure (smiles),measurement,value
COC(=O)C1=CO[C@@H](O)[C@@H]2C(CO)=CC[C@H]12 [genepin],susceptibility to creep deformation of denatured collagenous tissue,less susceptible to creep deformation
